{
  "source": "paper PMC6771811",
  "about": "“The structure of a GH149 β‐(1 → 3) glucan phosphorylase reveals a new surface oligosaccharide binding site and additional domains that are absent in the disaccharide‐specific GH94 glucose‐β‐(1 → 3)‐glucose (laminaribiose) phosphorylase” (Proteins, 2019)",
  "target": "T1, Pro_7066 (uncultured bacterium, UniProt Z9M604V374)",
  "T1 construct": "His6-tagged, pET28a, E. coli BL21 (DE3); tag removal not mentioned; 130-kDa chain, homodimer; domains span residues 1-1156; GH149",
  "T1 sequence (Z9M604V374 20-1175)": "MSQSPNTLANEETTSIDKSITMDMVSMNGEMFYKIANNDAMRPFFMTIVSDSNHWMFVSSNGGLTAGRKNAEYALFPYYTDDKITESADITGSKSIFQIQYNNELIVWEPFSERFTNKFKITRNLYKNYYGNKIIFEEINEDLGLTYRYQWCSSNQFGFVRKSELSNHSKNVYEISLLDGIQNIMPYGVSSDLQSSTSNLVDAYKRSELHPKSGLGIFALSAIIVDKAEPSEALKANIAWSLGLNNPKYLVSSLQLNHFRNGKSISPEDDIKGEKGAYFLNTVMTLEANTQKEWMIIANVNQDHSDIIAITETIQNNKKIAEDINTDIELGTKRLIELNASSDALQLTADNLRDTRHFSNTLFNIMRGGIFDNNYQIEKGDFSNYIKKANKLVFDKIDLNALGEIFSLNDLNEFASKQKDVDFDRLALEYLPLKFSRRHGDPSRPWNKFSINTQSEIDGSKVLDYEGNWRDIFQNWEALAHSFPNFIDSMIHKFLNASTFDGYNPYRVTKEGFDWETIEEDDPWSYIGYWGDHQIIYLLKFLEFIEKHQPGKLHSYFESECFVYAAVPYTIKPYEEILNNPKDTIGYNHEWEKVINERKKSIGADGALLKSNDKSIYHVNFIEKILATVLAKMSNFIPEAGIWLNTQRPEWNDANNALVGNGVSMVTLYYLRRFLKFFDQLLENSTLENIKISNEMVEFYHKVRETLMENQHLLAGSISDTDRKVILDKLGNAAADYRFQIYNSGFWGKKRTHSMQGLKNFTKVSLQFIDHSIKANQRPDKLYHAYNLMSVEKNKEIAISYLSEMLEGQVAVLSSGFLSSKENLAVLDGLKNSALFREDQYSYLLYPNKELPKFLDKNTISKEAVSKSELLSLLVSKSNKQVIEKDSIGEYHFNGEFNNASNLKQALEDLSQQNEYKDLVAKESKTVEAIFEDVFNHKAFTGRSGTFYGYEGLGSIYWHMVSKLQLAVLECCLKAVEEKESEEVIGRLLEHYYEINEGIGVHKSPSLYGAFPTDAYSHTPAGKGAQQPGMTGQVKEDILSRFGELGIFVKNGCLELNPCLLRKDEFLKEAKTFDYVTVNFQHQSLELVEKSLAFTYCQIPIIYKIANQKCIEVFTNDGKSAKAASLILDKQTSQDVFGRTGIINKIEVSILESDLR",
  "test": "X-ray crystal structure (co-crystallization), […] Å",
  "conditions": "8 mM G6, pH 9.0; surface binding site on catalytic domain, ~30 Å from active site; active site holds bicine and sulfate",
  "data": [
    {"smiles": "OC[C@H]1O[C@@H](O[C@@H]2[C@@H](O)[C@H](O[C@@H]3[C@@H](O)[C@H](O[C@@H]4[C@@H](O)[C@H](O[C@@H]5[C@@H](O)[C@H](O[C@H]6[C@H](O)[C@@H](CO)OC(O)[C@@H]6O)O[C@H](CO)[C@H]5O)O[C@H](CO)[C@H]4O)O[C@H](CO)[C@H]3O)O[C@H](CO)[C@H]2O)[C@H](O)[C@@H](O)[C@@H]1O", "note": "(stereo partly shown) [G6, laminarihexaose]", "values": [
      {"measurement": "X-ray crystal structure (co-crystallization), 2.25 Å", "result": "G6 bound to a SBS located on the solvent‐exposed surface of the catalytic domain"}
    ]}
  ]
}
